In patent publication US11214803B2, “Modulators of YAP1 expression” (Ionis Pharmaceuticals, Inc., priority 2019, dated 2022):
Strand notation (5' to 3'): a small letter for the sugar, then the base; units joined by * are phosphorothioate-linked, units joined directly phosphodiester-linked; [ ] holds rarer units or linkages, { } end groups; capitals alone tell only the bases. k = constrained ethyl (cEt); [5mC] = 5-methylcytosine; d = 2'-deoxy (DNA)

What follows are substances tested on Yap1 mRNA (assay: Antisense inhibition of human Yap1 in A-431 cells by cEt gapmers, single dose (Example 3, RTS36584)). Details: Table 8; A-431 cells, 5,000 cells per well, free uptake, 2,000 nM, approximately 48 hours; RTS36584; normalized to RIBOGREEN; Yap1 mRNA relative to untreated control cells.
Format: cell-based
Outline: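 Free uptake, 2,000 nM, ~48 h, A-431 cells. Gapmers: 16-mer 3-10-3 cEt wings, PS backbone, 5-MeC. Readout qRT-PCR, RiboGreen-normalized, % UTC.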

| Substance | YAP1 (% UTC) |
| --- | --- |
| 958420 (antisense kT*kT*k[5mC]*dA*dT*dA*dA*dT*d[5mC]*dT*dG*dA*d[5mC]*kT*kA*kG) [Compound 958420] | 66 |
| 958392 (antisense k[5mC]*kT*kA*dT*dG*dA*dG*dT*d[5mC]*dA*dA*d[5mC]*d[5mC]*kT*kG*k[5mC]) [Compound 958392] | 50 |
| 958409 (antisense kT*kT*kA*d[5mC]*d[5mC]*dA*dA*dA*dA*d[5mC]*dG*dA*dG*kG*kG*kT) [Compound 958409] | 99 |
| 958391 (antisense kA*kG*k[5mC]*dG*dA*dA*dG*dG*dT*dG*d[5mC]*dG*dG*kA*kG*k[5mC]) [Compound 958391] | 102 |

Same assay, conditions: Table 9; A-431 cells, 5,000 cells per well, free uptake, 2,000 nM, approximately 48 hours; RTS36584; normalized to RIBOGREEN; Yap1 mRNA relative to untreated control cells

| Substance | YAP1 (% UTC) |
| --- | --- |
| 958611 (antisense kG*kA*kG*d[5mC]*dA*dT*dG*d[5mC]*dT*d[5mC]*dT*dT*dA*k[5mC]*kA*kT) [Compound 958611] | 92 |
| 958791 (antisense k[5mC]*kA*kT*dA*dA*dG*dA*dA*dA*dA*dG*dA*d[5mC]*kG*kA*k[5mC]) [Compound 958791] | 123 |
| 958506 (kG*k[5mC]*kA*dG*dA*dT*dA*dA*dT*d[5mC]*dG*dA*dG*kA*kT*kT; antisense) [Compound 958506] | 6 |
| 958446 (antisense k[5mC]*k[5mC]*kT*dG*dA*d[5mC]*d[5mC]*d[5mC]*dA*dG*dG*d[5mC]*dG*kA*kG*k[5mC]) [Compound 958446] | 70 |
| 958591 (kT*k[5mC]*kA*d[5mC]*dA*dG*dT*dA*d[5mC]*dT*dG*d[5mC]*dT*kA*k[5mC]*kA; antisense) [Compound 958591] | 38 |
| 958796 (antisense kA*kT*kT*dA*dT*dA*dT*dG*dG*dT*dT*dG*d[5mC]*kT*kT*k[5mC]) [Compound 958796] | 3 |
| 958661 (kT*kG*k[5mC]*d[5mC]*dG*dT*dT*dG*dG*d[5mC]*d[5mC]*d[5mC]*d[5mC]*kT*k[5mC]*k[5mC]; antisense) [Compound 958661] | 120 |
| 958686 (antisense k[5mC]*kG*k[5mC]*dA*dA*dT*dA*dT*dA*dG*dT*d[5mC]*dT*kA*kT*kA) [Compound 958686] | 4 |

Same assay, conditions: Table 11; A-431 cells, 5,000 cells per well, free uptake, 2,000 nM oligonucleotide, approx. 48 hours; primer probe set RTS36584; Yap1 mRNA normalized to RIBOGREEN, percent of untreated control

| Substance | YAP1 (% UTC) |
| --- | --- |
| 958528 (kA*kG*kT*d[5mC]*dT*dT*dG*dT*dA*dA*dG*dT*dA*kA*kG*kA; antisense) [Compound 958528] | 18 |
| 958783 (antisense kT*kG*kA*dT*d[5mC]*dT*dG*dA*dT*dG*d[5mC]*dT*dT*kG*k[5mC]*kT) [Compound 958783] | 35 |
| 958523 (kT*kT*k[5mC]*d[5mC]*dA*dA*dT*d[5mC]*dG*dA*dG*dA*d[5mC]*kT*kT*kA; antisense) [Compound 958523] | 3 |
| 958488 (kA*kG*kG*dA*dA*dT*dG*dG*d[5mC]*dA*dT*d[5mC]*d[5mC]*kA*kT*k[5mC]; antisense) [Compound 958488] | 41 |

Same assay, conditions: Table 12; A-431 cells, 5,000 cells per well, free uptake, 2,000 nM modified oligonucleotide, approx. 48 hours; RTS36584; normalized to RIBOGREEN; Yap1 mRNA relative to untreated control cells

| Substance | YAP1 (% UTC) |
| --- | --- |
| 958594 (k[5mC]*kT*k[5mC]*dT*dT*dA*dG*dG*dT*d[5mC]*dT*d[5mC]*d[5mC]*kT*kT*k[5mC]; antisense) [Compound 958594] | 8 |
| 958524 (kG*k[5mC]*kA*d[5mC]*dA*dT*dT*dA*dT*dG*dA*dA*d[5mC]*k[5mC]*kT*kA; antisense) [Compound 958524] | 13 |
| 958604 (kA*k[5mC]*kG*d[5mC]*dT*dA*dG*dA*dA*dA*dA*dG*dT*kG*kT*kT; antisense) [Compound 958604] | 94 |
| 958709 (antisense kT*k[5mC]*kA*dA*dT*d[5mC]*dT*dA*dT*dG*dA*dG*dA*k[5mC]*k[5mC]*k[5mC]) [Compound 958709] | 57 |

Same assay, conditions: Table 13; A-431 cells, 5,000 cells per well, free uptake, 2,000 nM modified oligonucleotide, approx. 48 hours; RTS36584; normalized to RIBOGREEN; Yap1 mRNA relative to untreated control cells

| Substance | YAP1 (% UTC) |
| --- | --- |
| 958530 (kG*kA*kG*d[5mC]*dA*dA*dG*dT*d[5mC]*dT*dT*dG*dT*kA*kA*kG; antisense) [Compound 958530] | 20 |
| 958720 (antisense kG*kT*k[5mC]*dT*dA*d[5mC]*dT*dA*dG*dA*dG*d[5mC]*dT*kG*k[5mC]*k[5mC]) [Compound 958720] | 12 |
| 958600 (kG*kT*kA*dG*dA*dT*d[5mC]*dT*dA*dA*dG*dA*dA*kG*k[5mC]*k[5mC]; antisense) [Compound 958600] | 8 |

Same assay, conditions: Table 26; Yap1 mRNA by 3-10-3 cEt gapmers targeting SEQ ID NO.: 1, and 2; percent of untreated control

| Substance | YAP1 (% UTC) |
| --- | --- |
| 1074732 (k[5mC]*k[5mC]*kA*dG*dG*dT*dA*dT*d[5mC]*dA*d[5mC]*dA*dG*kT*kA*k[5mC]; antisense) [compound 1074732] | 30 |
| 1074252 (antisense kG*kG*kA*d[5mC]*dA*dG*d[5mC]*dA*dT*dG*dG*d[5mC]*d[5mC]*kT*kT*k[5mC]) [compound 1074252] | 50 |
| 1075404 (antisense kA*kT*kA*dT*dA*dA*d[5mC]*d[5mC]*dT*dG*dA*dA*d[5mC]*kT*kA*kA) [compound 1075404] | 102 |
| 1074476 (kT*kT*k[5mC]*d[5mC]*dG*dA*d[5mC]*dA*dA*dA*dA*d[5mC]*d[5mC]*kA*kA*k[5mC]; antisense) [compound 1074476] | 18 |
| 1075244 (kA*k[5mC]*k[5mC]*d[5mC]*dA*dA*dA*dA*dA*dT*dT*d[5mC]*dT*kG*kT*kG; antisense) [compound 1075244] | 76 |
| 1076300 (kA*kA*kA*dA*dA*dA*dT*dG*dG*d[5mC]*dT*dT*d[5mC]*kA*k[5mC]*kG; antisense) [compound 1076300] | 22 |

Same assay, conditions: Table 27; Yap1 mRNA by 3-10-3 cEt gapmers targeting SEQ ID NO.: 1, and 2; percent of untreated control

| Substance | YAP1 (% UTC) |
| --- | --- |
| 1074541 (k[5mC]*kA*k[5mC]*dT*dA*dT*d[5mC]*d[5mC]*dA*d[5mC]*dA*dG*dT*kA*kA*kT; antisense) [compound 1074541] | 23 |

Same assay, conditions: Table 28; Yap1 mRNA as percent of untreated control; 3-10-3 cEt gapmers targeting SEQ ID NO.: 1, and 2

| Substance | YAP1 (% UTC) |
| --- | --- |
| 1074510 (kA*kT*kA*d[5mC]*dA*dT*dT*d[5mC]*d[5mC]*dA*d[5mC]*dT*dA*k[5mC]*k[5mC]*kA; antisense) [compound 1074510] | 10 |
| 1076334 (antisense kA*k[5mC]*k[5mC]*dT*dA*dT*dA*dA*dG*dG*dA*dA*dT*kG*kG*k[5mC]) [compound 1076334] | 108 |
| 1075054 (antisense k[5mC]*kA*kA*dT*dA*dT*dA*dT*dA*d[5mC]*dT*dT*dG*kA*kT*k[5mC]) [compound 1075054] | 48 |
| 1075854 (k[5mC]*kT*kT*dA*dT*dA*dA*dT*dA*dG*dA*dG*d[5mC]*kT*kA*kA; antisense) [compound 1075854] | 52 |

Same assay, conditions: Table 29; Yap1 mRNA as percent of untreated control; 3-10-3 cEt gapmers targeting SEQ ID NO.: 1, and 2

| Substance | YAP1 (% UTC) |
| --- | --- |
| 1075567 (kG*kA*kT*dA*dT*dA*dT*dA*dA*d[5mC]*dA*dG*dG*k[5mC]*k[5mC]*kA; antisense) [compound 1075567] | 65 |
| 1074959 (antisense kT*kT*kA*dA*d[5mC]*d[5mC]*d[5mC]*dG*dG*dG*dT*dT*dT*kT*kT*kG) [compound 1074959] | 128 |
| 1074383 (kT*k[5mC]*kA*dA*dG*dG*dT*dA*dG*dT*d[5mC]*dT*dG*kG*kG*kA; antisense) [compound 1074383] | 40 |
| 1074991 (antisense kA*kA*kT*dT*dA*dT*dT*dT*dG*dA*d[5mC]*dT*d[5mC]*k[5mC]*k[5mC]*k[5mC]) [compound 1074991] | 60 |
| 1076303 (k[5mC]*kT*kA*dA*dT*dA*dA*dG*d[5mC]*d[5mC]*dT*d[5mC]*dA*k[5mC]*k[5mC]*kT; antisense) [compound 1076303] | 34 |
| 1074799 (kT*kG*k[5mC]*dT*dT*dT*dG*dG*dA*dA*dG*dA*dT*k[5mC]*kT*kG) [compound 1074799] | 8 |

Same assay, conditions: Table 34; Yap1 mRNA as percent of untreated control; 3-10-3 cEt gapmers targeting SEQ ID NO: 1 and 2; single dose

| Substance | YAP1 (% UTC) |
| --- | --- |
| 1074516 (kT*kT*kA*dA*d[5mC]*dT*dG*dG*dA*dA*dA*dG*d[5mC]*kA*kG*kG; antisense) [compound 1074516] | 22 |
| 1075156 (kA*kT*kT*dA*dT*dA*dT*dG*dA*d[5mC]*dT*d[5mC]*dT*kG*k[5mC]*kT; antisense) [compound 1075156] | 22 |
| 1075252 (kT*kT*kA*dA*dT*dT*dA*d[5mC]*dG*dA*dT*dT*dA*kG*kA*kT; antisense) [compound 1075252] | 90 |
| 1076212 (k[5mC]*kA*kA*dA*dT*dT*dT*dA*dT*dA*dT*dG*d[5mC]*kT*k[5mC]*k[5mC]; antisense) [compound 1076212] | 15 |

Same assay, conditions: Table 35; Yap1 mRNA as percent of untreated control; 3-10-3 cEt gapmers targeting SEQ ID NO: 1 and 2; single dose

| Substance | YAP1 (% UTC) |
| --- | --- |
| 1076437 (kG*kA*kA*dG*dA*dA*dT*dA*dG*d[5mC]*dA*dT*d[5mC]*kT*kG*kA; antisense) [compound 1076437] | 19 |
| 1076021 (k[5mC]*kA*kT*dT*dA*dA*dT*dA*dA*dA*dG*dT*dT*kA*k[5mC]*k[5mC]; antisense) [compound 1076021] | 95 |
| 1075029 (antisense kA*kT*kA*dT*dT*d[5mC]*dG*dA*d[5mC]*dA*d[5mC]*dT*dG*kG*kA*kG) [compound 1075029] | 33 |
